Test results: US20180207228A1, “PEPTIDE COMBINATIONS AND USES THEREOF FOR TREATING GRASS ALLERGY” (ALK-Abelló A/S, priority 2015, published 2018)
Where no end group is shown, it is not given here.

Columns and labels:
[1] = system: allergen specific T cells; assay: T cell proliferation assay (72 h) on donor derived T cell lines (TCL02/TCL03); assay type: cell-based, human; conditions: for T cell response in % of the donors tested: single peptide; for Proliferation % donor coverage (TCL-02 DK1): T cell lines TCL-02 DK1, 30 donors, hit criteria SI>=2, CPM>=1000; for Proliferation strength (TCL-02 DK1): T cell lines TCL-02 DK1, strength of response (average relative magnitude)
Outline: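 CD8-depleted PBMCs from grass-allergic donors stimulated with natural grass allergen mix (nPhl p 1 0.5 μg/ml) to raise T cell lines; restimulated with irradiated APCs, allergens or PHA-P (0.5 μg/ml) plus rIL-2. Proliferation to overlapping 20-mer and selected 15-mer grass peptides tested with TCL02 (day 24) or TCL03 (day 34).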

[2] = Peptide solubility by visual inspection; assay type: physicochemical; on Visual inspection after centrifugation pH 7: key: ok: clear solution; +: very small precipitation only visible with a magnifier; ++: precipitation/turbid solution; +++: more precipitation/turbid solution
Description: Water (pH 3-5) • 2. 250 mM D-Mannitol and 25 mM sodium acetate, pH 4.5 • 3. 250 mM D-Mannitol and 25 mM sodium phosphate, pH 7.0 • 4. […] Water (pH 3-5) • 2. 250 mM D-Mannitol and 25 mM sodium acetate, pH 4.5 • 3. 250 mM D-Mannitol and 25 mM sodium phosphate, pH 7.0 • 4. […] A subset of the peptides was selected as candidate peptides for a final peptide mixture. […] During the solubility studies the peptide-containing solutions were inspected visually before and after filtration for turbidity, and presence of particles/aggregates. In addition, presence of turbidity/particles/aggregates was also detected by optical density (OD) or absorbance of filtered material, but might also be detected by size-exclusion chromatography. Furthermore, Sub-visual particles may also be detected by dynamic light scattering (DLS) analysis on filtered and non-filtered peptide containing solutions. Samples were furthermore subjected to centrifugation to allow for the possible visual inspection of pelleted material.

[3] = 3 mg/mL, acetate salt, non-filtered, 250 mM D-Mannitol and 25 mM sodium phosphate, pH 7.0

Row | solubility, 1st round of solubility screening [2] | Visual inspection after 60 min pH 7 [2, 3] | Visual inspection after 60 min pH 4.5 ([2]; 3 mg/mL, acetate salt, non-filtered, 250 mM D-Mannitol and 25 mM sodium acetate, pH 4.5) | Visual inspection after centrifugation pH 4.5 ([2]; 3 mg/mL, acetate salt, non-filtered, 250 mM D-Mannitol and 25 mM sodium acetate, pH 4.5, after centrifugation) | Visual inspection after centrifugation pH 7 ([2]; 3 mg/mL, acetate salt, non-filtered, 250 mM D-Mannitol and 25 mM sodium phosphate, pH 7.0, after centrifugation) | Substance | T cell response in % of the donors tested [1] | solubility in aqueous solutions [2] | Proliferation % donor coverage (TCL-02 DK1) [1] | Proliferation strength (TCL-02 DK1) [1]
1 | soluble | – | – | – | – | DKYRTFVATFGAASNKAFAE-OH [peptide 231] | ~40% | – | – | –
2 | soluble | – | – | – | – | PANDKFTVFEAAFNNAIKAS-OH [compound 70] | – | – | 46.67% | 8.10
3 | soluble | particles + | + particles, | ++ | +++ | WGAIWRIDTPDKLTGPFTVR-OH [peptide 211] | ~40% | surprisingly good solubility in aqueous solutions | – | –

Continued, substance first:

Row | Substance | solubility, 1st round of solubility screening [2] | Visual inspection after 60 min pH 7 [2, 3] | Visual inspection after 60 min pH 4.5 ([2]; 3 mg/mL, acetate salt, non-filtered, 250 mM D-Mannitol and 25 mM sodium acetate, pH 4.5) | Visual inspection after centrifugation pH 4.5 ([2]; 3 mg/mL, acetate salt, non-filtered, 250 mM D-Mannitol and 25 mM sodium acetate, pH 4.5, after centrifugation) | Visual inspection after centrifugation pH 7 ([2]; 3 mg/mL, acetate salt, non-filtered, 250 mM D-Mannitol and 25 mM sodium phosphate, pH 7.0, after centrifugation) | T cell response in % of the donors tested [1] | solubility in aqueous solutions [2] | Proliferation % donor coverage (TCL-02 DK1) [1] | Proliferation strength (TCL-02 DK1) [1]
4 | AYESYKFIPALEAAVKQAYA-OH [peptide 285] | – | – | – | – | – | ~50% | surprisingly good solubility in aqueous solutions | – | –
5 | STGGAYESYKFIPALEAAVK-OH [compound 71] | soluble | tread + | – | – | – | ~50% | surprisingly good solubility in aqueous solutions | 46.67% | 8.20
6 | TDDNEEPIAPYHFDLSGHAF-OH [peptide 204] | soluble | – | – | – | – | ~40% | surprisingly good solubility in aqueous solutions | – | –
7 | VATLSEALRIIAGTLEVHAV-OH [compound 67] | – | – | – | – | – | – | – | 43.33% | 7.30
